Data: US12440487B2, “Method of normalizing the neutrophil to lymphocyte ratio in cancer patients with a selective glucocorticoid receptor antagonist” (Corcept Therapeutics Incorporated, priority 2019, dated 2025)
Several values for one entry are separate records, joined by “and”; a condition that tells them apart may be missing. Equal entries are not always repeated. Entries after “also recorded” stand apart in the source; their conditions may differ.

Tests used:
[1] = tested on: neutrophil or lymphocyte abundance in the blood; conditions: healthy men / healthy subjects; cited from earlier work
[2] = target: glucocorticoid receptor (GR) (Homo sapiens, UniProt P04150); conditions: binds to GR, PR and AR; cited from earlier work
glucocorticoid receptor (GR), sequence (P04150 whole entry, species assumed): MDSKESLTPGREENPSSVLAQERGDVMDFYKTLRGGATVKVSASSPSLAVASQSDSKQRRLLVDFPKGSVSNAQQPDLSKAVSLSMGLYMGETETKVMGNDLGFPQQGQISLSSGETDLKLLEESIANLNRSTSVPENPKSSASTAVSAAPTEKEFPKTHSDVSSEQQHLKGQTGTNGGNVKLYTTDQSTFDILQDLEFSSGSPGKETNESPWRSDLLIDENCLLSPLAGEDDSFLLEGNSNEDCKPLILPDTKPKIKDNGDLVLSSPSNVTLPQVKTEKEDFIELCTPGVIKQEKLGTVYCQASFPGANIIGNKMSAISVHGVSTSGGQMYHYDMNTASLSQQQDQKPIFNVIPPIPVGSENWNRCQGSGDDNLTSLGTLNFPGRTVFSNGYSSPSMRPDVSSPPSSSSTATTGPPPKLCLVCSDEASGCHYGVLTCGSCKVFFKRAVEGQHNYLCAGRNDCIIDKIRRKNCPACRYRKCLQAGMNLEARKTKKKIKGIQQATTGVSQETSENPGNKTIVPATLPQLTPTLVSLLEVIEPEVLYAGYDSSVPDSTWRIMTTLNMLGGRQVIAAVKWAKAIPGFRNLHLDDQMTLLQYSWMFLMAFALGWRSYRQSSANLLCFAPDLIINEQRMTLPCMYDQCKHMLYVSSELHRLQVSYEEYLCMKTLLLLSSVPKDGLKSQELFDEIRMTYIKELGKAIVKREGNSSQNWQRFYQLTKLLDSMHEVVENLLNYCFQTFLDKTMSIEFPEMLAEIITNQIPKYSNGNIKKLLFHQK

[3] = tested on: neutrophil-to-lymphocyte ratio (NLR); assay: Prednisone-challenge NLR study in healthy subjects (NCT03508635, SAD and MAD cohorts); assay type: in vivo, human
Procedure: Methods: Lymphocyte and neutrophil abundance were determined using standard differential complete blood count tests.
(§1) Healthy subjects were enrolled in the NCT03508635 study of relacorilant. […] (C) is the Figure legend.
(§2) The intensive NLR sampling was conducted at time 0 (morning, pre-dose) and then 2, 4, 8, 12, and 24 hours thereafter. The single NLR samples were collected in the in the morning, pre-dose. The SAD portion of this experiment used a 500 mg dose while the MAD used a once daily 250 mg dose.
(§3) Blood was also drawn in the morning, pre-dose.

progesterone receptor = target: T1, progesterone receptor (Homo sapiens, UniProt P06401); conditions: cited from earlier work
T1 sequence (P06401 1-933): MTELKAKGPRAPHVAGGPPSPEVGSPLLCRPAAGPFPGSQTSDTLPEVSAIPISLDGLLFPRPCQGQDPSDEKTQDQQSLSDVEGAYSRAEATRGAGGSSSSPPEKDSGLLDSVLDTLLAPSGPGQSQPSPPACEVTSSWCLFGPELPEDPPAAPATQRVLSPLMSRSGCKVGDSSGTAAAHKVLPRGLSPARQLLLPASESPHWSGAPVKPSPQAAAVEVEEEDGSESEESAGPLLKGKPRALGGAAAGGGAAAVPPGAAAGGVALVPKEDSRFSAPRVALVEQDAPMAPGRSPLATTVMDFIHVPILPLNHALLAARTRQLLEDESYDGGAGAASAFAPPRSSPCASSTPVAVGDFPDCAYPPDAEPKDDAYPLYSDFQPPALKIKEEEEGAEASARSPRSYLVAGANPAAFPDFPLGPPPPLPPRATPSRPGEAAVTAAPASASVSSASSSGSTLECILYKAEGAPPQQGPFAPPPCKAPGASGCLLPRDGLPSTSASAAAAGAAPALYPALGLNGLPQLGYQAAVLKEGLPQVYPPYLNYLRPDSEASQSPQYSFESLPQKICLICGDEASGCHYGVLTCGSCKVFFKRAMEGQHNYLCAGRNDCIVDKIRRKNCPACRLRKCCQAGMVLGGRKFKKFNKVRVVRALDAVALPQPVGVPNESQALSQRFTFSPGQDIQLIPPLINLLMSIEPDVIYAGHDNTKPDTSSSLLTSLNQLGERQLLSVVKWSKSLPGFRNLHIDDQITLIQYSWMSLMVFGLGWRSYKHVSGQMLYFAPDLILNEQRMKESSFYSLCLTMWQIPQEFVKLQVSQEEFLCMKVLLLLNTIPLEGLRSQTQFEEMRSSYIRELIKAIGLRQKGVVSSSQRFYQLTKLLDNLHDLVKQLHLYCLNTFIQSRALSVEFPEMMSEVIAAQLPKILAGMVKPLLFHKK

[4] = tested on: neutrophil-to-lymphocyte ratio (NLR); assay: Relacorilant alone, NLR in healthy subjects (NCT03508635); assay type: in vivo, human; conditions: 250 mg for 14 continuous days, cohort of 7 healthy subjects, none with baseline NLR greater than 3
Procedure: as §1, §2, §3
The normalization of the NLR by relacorilant is thought to occur through antagonism of endogenous cortisol. If patients have elevated cortisol activity, relacorilant would be expected to normalize this activity. Alternatively, relacorilant alone could cause neutropenia (reduction in neutrophils) or lymphocytosis (increase in lymphocytes) via antagonism of normal endogenous cortisol. To distinguish these two possibilities, we assessed the effects of relacorilant alone in healthy subject with normal endogenous cortisol. After 14 administering 250 mg of relacorilant for 14 continuous days, no change in the NLR was observed across a cohort of 7 healthy subjects (FIG. 7).

[5] = tested on: neutrophil-to-lymphocyte ratio (NLR); assay: 7-day single-agent relacorilant lead-in, NLR in patients with advanced solid tumors (NCT02762981); assay type: in vivo, human; conditions: for patients who experienced a decrease in NLR / average change in NLR: 7-day relacorilant lead-in
Procedure: The relacorilant lead-in included daily dosing of relacorilant alone (without nab-paclitaxel) for 7 days.
Drug concentrations were determined in study NCT02762981. Blood was collected at multiple timepoints on day 7 of relacorilant dosing. Upon collection, blood was chelated with EDTA, centrifuged, and plasma was aliquoted. Bioanalytical analyses were conducted by MicroConstants (San Diego, CA, USA). In brief, human plasma samples containing relacorilant and its stable-labeled analog as an internal standard and K3EDTA as the anticoagulant were buffered with an ammonium citrate solution and extracted with 2-butanol:hexane (2.5:97.5, v/v). The samples were vortex mixed, centrifuged and the lower portion was frozen in an ultra-cold freezer. The organic portion was transferred to a clean tube and evaporated under nitrogen. The extracts were dried, reconstituted and analyzed by reversed-phase HPLC using an ACE UltraCore SuperPhenylHexyl column. The mobile phase was nebulized using heated nitrogen in a Z-spray source/interface set to electrospray positive ionization mode. The ionized compounds were detected using MS/MS.
as §3

Compound: CC#C[C@]1(O)CC[C@H]2[C@@H]3CCC4=CC(=O)CCC4=C3[C@@H](c3ccc(N(C)C)cc3)C[C@@]21C [mifepristone, 11β-(4-dimethylaminophenyl)-17β-hydroxy-17α-(1-propynyl)-estra-4,9-dien-3-one]
- effect on neutrophil or lymphocyte abundance in the blood [1]: does not alter
- selectivity for GR [2]: not selective

Compound: C[C@]12C=CC(=O)C=C1CC[C@@H]1[C@@H]2C(=O)C[C@@]2(C)[C@H]1CC[C@]2(O)C(=O)CO [prednisone, 17α,21-dihydroxypregna-1,4-diene-3,11,20-trione, reference compound]
- NLR area under the curve ([3]; 25 mg prednisone after 14 consecutive days of placebo, different subjects): 72 NLR*hr
- NLR at 8 hours post prednisone ([3]; 9 healthy subjects, single dose 25 mg prednisone, baseline less than 2, returned to baseline after 24 hours): greater than 6
- NLR area under the curve ([3]; MAD cohort, 25 mg prednisone alone, same subjects on Day −5): 61.7 NLR*hr
- NLR area under the curve ([3]; SAD cohort, 25 mg prednisone alone): 54.6 NLR*hr
- acute increase of the neutrophil-to-lymphocyte ratio (NLR) ([3]; healthy subjects (n=9), 25 mg prednisone): 4.7 fold

Compound: Cn1cc(S(=O)(=O)N2CCC3=Cc4c(cnn4-c4ccc(F)cc4)C[C@]3(C(=O)c3cc(C(F)(F)F)ccn3)C2)cn1 [relacorilant, (R)-(1-(4-fluorophenyl)-6-((1-methyl-1H-pyrazol-4-yl)sulfonyl)-4,4a,5,6,7,8-hexahydro-1H-pyrazolo[3,4-g]isoquinolin-4a-yl)(4-(trifluoromethyl)pyridin-2-yl)methanone]
- effect on prednisone-induced NLR increase ([3]; 14 consecutive days of 250 mg/day relacorilant, then 25 mg prednisone, healthy subjects): significantly blunted; also recorded: reversed the effects
- NLR area under the curve ([3]; MAD cohort, 25 mg prednisone after 14 consecutive days of 250 mg/day relacorilant): 9.6 NLR*hr
- NLR area under the curve ([3]; SAD cohort, single 500 mg dose relacorilant administered with 25 mg prednisone): 12.5 NLR*hr
- effect on prednisone-induced NLR increase ([3]; relacorilant co-administration with 25 mg prednisone, healthy subjects (n=9)): reversed this effect
- effect on prednisone-induced NLR increase ([3]; single 500 mg dose relacorilant with 25 mg prednisone, healthy subjects): significantly blunted; also recorded: reversed the effects
- antagonism of the progesterone receptor (progesterone receptor): does not antagonize
- change in the NLR with relacorilant alone [4]: no change; also recorded: does not change
- patients who experienced a decrease in NLR ([5]; patients with AUC between 2011-8000 ng*hr/ml (6/13)): 46%
- average change in NLR ([5]; patients with AUC between 3740-8000 ng*hr/ml): −6.1%
- patients who experienced a decrease in NLR ([5]; patients with AUC<2011 ng*hr/ml or Cmax<442 ng/ml): None
- patients who experienced a decrease in NLR ([5]; patients with Cmax between 442-1000 ng/ml (6/9)): 67%
- average change in NLR ([5]; patients with Cmax between 595-836 ng/ml): −4.4%
- NLR change from baseline (CfB) ([5]; ovarian cancer patient 038-4004, 7-day relacorilant lead-in): −46% and −55%
- NLR after relacorilant lead-in ([5]; ovarian cancer patient 038-4004, 7-day relacorilant lead-in, NLR before 5.5): 2.5
